Values quoted from earlier work, collected in patent US20230404934A1, “ON DEMAND AND LONG-TERM DRUG DELIVERY FROM DEGRADABLE NANOCAPSULES” (University of Maryland, Baltimore County, priority 2020, published 2023).

Conditions: topical to the eye

washout from the eye after topical administration: washes out very quickly, within minutes
SMILES: Cc1ccc(=O)n(-c2ccccc2)c1 [pirfenidone, 5-methyl-1-phenylpyridin-2-one]
amount in the back of the eye after topical administration: no measurable amounts in the back of the eye
